ChEMBL document CHEMBL5143561, “Neopestolides A-D, Diphenyl Ether Derivatives from the Plant Endophytic Fungus Neopestalotiopsis sp” (J Nat Prod, 2022)

Experiments:
Type in all cases: functional, cell-based
HCT-116 = experiment: Antiproliferative activity against human HCT-116 cells assessed as reduction in cell viability measured after 72 hrs by MTT assay; conditions: HCT-116, 72 h
HepG2 = experiment: Antiproliferative activity against human HepG2 cells assessed as reduction in cell viability measured after 72 hrs by MTT assay; conditions: HepG2, 72 h
J82 = experiment: Antiproliferative activity against human J82 cells assessed as reduction in cell viability measured after 72 hrs by MTT assay; conditions: J82, 72 h
SK-BR-3 = experiment: Antiproliferative activity against human SK-BR-3 cells assessed as reduction in cell viability measured after 72 hrs by MTT assay; conditions: SK-BR-3, 72 h

| IC50 (HCT-116) [µM] | IC50 (HepG2) [µM] | IC50 (SK-BR-3) [µM] | Structure (SMILES) | IC50 (J82) [µM] |
| --- | --- | --- | --- | --- |
| 20.7 | 21.6 | > 100 | C=C1CO[C@@H](c2ccc3c(c2OC)C(=O)OCc2cc(C)cc(O)c2O3)[C@@H]1O | > 100 |
| 45.6 | 16.8 | 29.1 | C=C1COC(c2ccc3c(c2OC)C(=O)OCc2cc(C)cc(O)c2O3)C1O (racemic) | > 100 |
| 57.1 | 30.1 | 86.5 | C=C1CO[C@H](c2ccc3c(c2OC)C(=O)OCc2cc(C)cc(O)c2O3)[C@H]1O | > 100 |

More lines, now with the values behind:

| Structure (SMILES) | IC50 (HCT-116) [µM] | IC50 (HepG2) [µM] | IC50 (SK-BR-3) [µM] | IC50 (J82) [µM] |
| --- | --- | --- | --- | --- |
| COc1c(/C=C/[C@@](C)(O)CO)ccc2c1C(=O)OCc1cc(C)cc(O)c1O2 | 79.3 | 70.1 | > 100 | > 100 |
| COc1c([C@@H]2OC[C@@](C)(O)[C@H]2O)ccc2c1C(=O)OCc1cc(C)cc(O)c1O2 | 74.3 | 99.7 | 88.5 | > 100 |
| C=C(C)[C@H](C)[C@H](O)c1ccc2c(c1OC)C(=O)OCc1cc(C)cc(O)c1O2 | 22.4 | 12.4 | 43.8 | 62.4 |
| COc1c([C@H]2OC[C@@](C)(O)[C@H]2O)ccc2c1C(=O)OCc1cc(C)cc(O)c1O2 | 47.1 | 80.1 | > 100 | > 100 |
